# Test results: patent publication US6239171A, “Tocotrienols and tocotrienol-like compounds and methods for their use” (Lipogenics, Inc., priority 1998, dated 2001)
# Tests used:
# [1] = target: T1, HMG-CoA reductase (Homo sapiens, UniProt P04035); test: Hepatic HMG-CoA reductase activity in chickens fed supplemented diets; format: in vivo, chicken; conditions: 4 weeks
# T1 construct: hepatocytes isolated from livers of 8-week old female chickens; endogenous in cells; host or cells: primary chicken hepatocytes
# T1 sequence (P04035 1-888): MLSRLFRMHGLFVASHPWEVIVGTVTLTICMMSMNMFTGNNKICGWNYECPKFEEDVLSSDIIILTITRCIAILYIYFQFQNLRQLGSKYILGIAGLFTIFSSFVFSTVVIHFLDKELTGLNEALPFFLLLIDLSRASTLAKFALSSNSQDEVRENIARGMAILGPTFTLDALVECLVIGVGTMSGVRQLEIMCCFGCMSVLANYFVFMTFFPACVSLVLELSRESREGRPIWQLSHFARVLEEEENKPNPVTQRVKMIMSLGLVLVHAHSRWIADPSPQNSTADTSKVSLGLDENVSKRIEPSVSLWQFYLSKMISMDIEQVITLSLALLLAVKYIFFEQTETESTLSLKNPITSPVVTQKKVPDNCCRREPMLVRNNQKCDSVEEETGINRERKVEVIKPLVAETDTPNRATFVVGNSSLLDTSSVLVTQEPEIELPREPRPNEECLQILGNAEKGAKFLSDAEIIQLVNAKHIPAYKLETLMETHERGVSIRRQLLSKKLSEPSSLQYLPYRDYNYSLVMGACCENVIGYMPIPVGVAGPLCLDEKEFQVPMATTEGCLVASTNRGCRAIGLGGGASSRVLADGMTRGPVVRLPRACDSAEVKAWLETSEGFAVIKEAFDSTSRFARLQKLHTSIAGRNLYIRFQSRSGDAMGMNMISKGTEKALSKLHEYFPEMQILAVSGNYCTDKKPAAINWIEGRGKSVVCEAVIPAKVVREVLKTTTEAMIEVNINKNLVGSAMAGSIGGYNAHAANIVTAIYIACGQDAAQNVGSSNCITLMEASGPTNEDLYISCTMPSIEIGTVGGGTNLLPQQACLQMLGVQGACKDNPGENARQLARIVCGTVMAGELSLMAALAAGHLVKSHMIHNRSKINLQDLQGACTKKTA
# Description: (§3) This example measured the effects of the TRF and its components on the hepatic enzymatic activity of HMG-CoA reductase and cholesterol 7α-hydroxylase. […] The amount of feed consumed ranged from 11.19-11.60 g per chicken and the feeding period was 4 weeks. The birds were fasted for a period of 36 hours and refed for 48 hours prior to sacrifice (at 0800 hours).
# [2] = system: cholesterol 7α-hydroxylase; test: Hepatic cholesterol 7α-hydroxylase activity in chickens fed supplemented diets; format: in vivo, chicken; conditions: control diet + 50 ppm, 4 weeks
# Description: as §3
# [3] = system: chickens; test: Plasma thromboxane B2 and platelet factor 4 in chickens fed supplemented diets; format: in vivo, chicken; conditions: control diet + 50 ppm, 4 weeks
# Description: We next measured the effects of TRF and its components on serum levels of apolipoprotein (a)1, apolipoprotein B, triglycerides and glucose and the plasma levels of thromboxane B2 and platelet factor 4.
# [4] = target: T2, Fatty Acid Synthase (Gallus gallus, UniProt P12276); test: Fatty acid synthase activity in isolated chicken hepatocytes; format: cell-based
# T2 construct: hepatocytes isolated from livers of 8-week old female chickens; endogenous in cells; host or cells: primary chicken hepatocytes
# T2 sequence (P12276 2-2512 limits assumed): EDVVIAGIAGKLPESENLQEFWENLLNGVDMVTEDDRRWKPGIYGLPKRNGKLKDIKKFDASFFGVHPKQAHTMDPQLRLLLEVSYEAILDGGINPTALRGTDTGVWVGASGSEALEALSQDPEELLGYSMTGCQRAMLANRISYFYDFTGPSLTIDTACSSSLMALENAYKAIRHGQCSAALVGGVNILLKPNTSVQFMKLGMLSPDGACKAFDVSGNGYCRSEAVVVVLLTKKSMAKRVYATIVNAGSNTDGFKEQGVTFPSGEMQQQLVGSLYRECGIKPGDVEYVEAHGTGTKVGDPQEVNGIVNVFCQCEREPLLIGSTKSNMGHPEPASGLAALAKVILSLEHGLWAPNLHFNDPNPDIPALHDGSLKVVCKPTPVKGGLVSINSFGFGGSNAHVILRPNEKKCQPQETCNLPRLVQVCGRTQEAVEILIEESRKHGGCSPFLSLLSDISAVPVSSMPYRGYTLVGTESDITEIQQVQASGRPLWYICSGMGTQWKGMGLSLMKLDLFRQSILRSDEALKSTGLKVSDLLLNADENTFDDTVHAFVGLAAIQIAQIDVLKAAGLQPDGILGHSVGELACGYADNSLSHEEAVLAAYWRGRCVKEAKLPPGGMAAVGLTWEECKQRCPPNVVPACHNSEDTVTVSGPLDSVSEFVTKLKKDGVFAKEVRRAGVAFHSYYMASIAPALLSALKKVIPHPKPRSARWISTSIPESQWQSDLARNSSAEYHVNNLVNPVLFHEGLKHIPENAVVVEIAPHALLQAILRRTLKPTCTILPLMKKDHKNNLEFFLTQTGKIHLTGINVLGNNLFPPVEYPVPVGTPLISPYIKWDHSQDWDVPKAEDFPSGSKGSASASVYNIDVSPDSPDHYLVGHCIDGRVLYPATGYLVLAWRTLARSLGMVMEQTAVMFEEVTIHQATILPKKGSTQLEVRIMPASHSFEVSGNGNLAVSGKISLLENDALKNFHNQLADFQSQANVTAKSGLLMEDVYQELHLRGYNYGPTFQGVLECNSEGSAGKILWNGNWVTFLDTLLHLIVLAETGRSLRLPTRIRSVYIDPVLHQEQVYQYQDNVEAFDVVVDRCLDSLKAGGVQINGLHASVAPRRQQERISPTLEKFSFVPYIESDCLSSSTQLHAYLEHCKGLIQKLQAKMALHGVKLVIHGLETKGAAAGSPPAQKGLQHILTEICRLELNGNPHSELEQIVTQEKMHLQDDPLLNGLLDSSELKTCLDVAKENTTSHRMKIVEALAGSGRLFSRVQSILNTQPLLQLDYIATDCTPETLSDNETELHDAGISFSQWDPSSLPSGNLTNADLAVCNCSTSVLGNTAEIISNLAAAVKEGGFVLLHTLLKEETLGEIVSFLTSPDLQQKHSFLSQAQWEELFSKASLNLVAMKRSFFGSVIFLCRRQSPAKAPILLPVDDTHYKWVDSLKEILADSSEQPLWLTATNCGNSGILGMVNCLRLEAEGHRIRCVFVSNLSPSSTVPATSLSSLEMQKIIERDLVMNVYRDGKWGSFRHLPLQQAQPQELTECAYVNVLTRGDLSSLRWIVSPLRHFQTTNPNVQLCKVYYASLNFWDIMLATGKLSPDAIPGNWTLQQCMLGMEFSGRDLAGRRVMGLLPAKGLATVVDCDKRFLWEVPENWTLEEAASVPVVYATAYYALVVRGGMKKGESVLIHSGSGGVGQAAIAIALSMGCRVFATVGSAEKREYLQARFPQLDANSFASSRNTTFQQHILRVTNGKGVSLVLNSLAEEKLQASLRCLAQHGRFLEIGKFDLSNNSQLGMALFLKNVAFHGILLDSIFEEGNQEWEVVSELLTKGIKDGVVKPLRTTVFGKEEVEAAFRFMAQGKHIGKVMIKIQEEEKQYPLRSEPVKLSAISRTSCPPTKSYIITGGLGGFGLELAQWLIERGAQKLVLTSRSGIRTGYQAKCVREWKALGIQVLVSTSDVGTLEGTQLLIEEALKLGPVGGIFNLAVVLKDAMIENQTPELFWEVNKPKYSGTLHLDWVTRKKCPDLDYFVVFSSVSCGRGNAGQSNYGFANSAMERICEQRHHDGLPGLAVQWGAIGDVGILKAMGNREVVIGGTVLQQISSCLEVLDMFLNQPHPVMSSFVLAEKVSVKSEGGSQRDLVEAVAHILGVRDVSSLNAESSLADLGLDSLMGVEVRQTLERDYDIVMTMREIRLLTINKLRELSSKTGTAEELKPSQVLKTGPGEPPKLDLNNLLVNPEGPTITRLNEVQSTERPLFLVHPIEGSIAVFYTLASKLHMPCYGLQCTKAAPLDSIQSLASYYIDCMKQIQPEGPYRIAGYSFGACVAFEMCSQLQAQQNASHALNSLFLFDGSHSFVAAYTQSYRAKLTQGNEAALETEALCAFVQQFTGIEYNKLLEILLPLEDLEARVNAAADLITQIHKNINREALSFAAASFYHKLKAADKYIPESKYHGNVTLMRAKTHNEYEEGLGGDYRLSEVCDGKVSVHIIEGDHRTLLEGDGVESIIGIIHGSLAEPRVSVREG
# Description: (§1) This study measured the effects of three tocotrienols isolated from rice bran on cholesterol-related enzyme activity in hepatocytes isolated from livers of 8-week old female chickens. The chickens were fed the chick mash diet for 8 weeks. They were then fasted for 40 hours and finally refed for 48 hours before sacrifice. The hepatocytes were then prepared following standard methods.
# (§2) Each compound was isolated from TRF using the following protocol: A bond Elute amine column was equilibrated with 2 ml hexane. 10 mg of TRF (dissolved in 0.5 ml hexane) was bound to the amine column. The column was washed with 1 ml of hexane, then with 1 ml of 3% isopropanol in hexane. P-21 and P-25 were eluted off the column with 5% isopropanol in hexane. Then using 10% isopropanol in hexane, the impurity P-20 was eluted. α-tocotrienol was also tested.
# [5] = system: cholesterol 7α-hydroxylase; test: Cholesterol 7α-hydroxylase activity in isolated chicken hepatocytes; format: cell-based
# Description: as §1, §2
# [6] = system: hypercholesterolemic swine; test: Total cholesterol, triglyceride and glucose concentrations in tissues of hypercholesterolemic swine; format: in vivo
# Description: Each group of three 5-month old swine was administered either a control diet or a control diet supplemented with 50 ppm of TRF or 50 ppm of an individual tocotrienol. […] After a 12 hour fast, serum and plasma samples were taken a 0 hrs, 21 days and 42 days from the start of the feeding period. After taking serum and plasma samples from the pigs at the end of the 42 day period, all of the swine were fasted for a total of 40 hours, followed by a 48 hour refeeding period. One swine from each group was sacrificed at that time and the liver, intestine, lung, heart, loin muscle, adipose tissue and ham muscle were removed.
# We next determined the effect of tocotrienols on the total cholesterol, triglyceride and glucose concentrations in various tissues of hypercholesterolemic swine.
# [7] = system: hypercholesterolemic swine; test: Body weight gain and feed conversion efficiency in hypercholesterolemic swine; format: in vivo; conditions: control diet + 50 ppm
# Description: Each group of three 5-month old swine was administered either a control diet or a control diet supplemented with 50 ppm of TRF or 50 ppm of an individual tocotrienol. The samples were prepared as described in Example 11. After a 12 hour fast, serum and plasma samples were taken a 0 hrs, 21 days and 42 days from the start of the feeding period. After taking serum and plasma samples from the pigs at the end of the 42 day period, all of the swine were fasted for a total of 40 hours, followed by a 48 hour refeeding period. One swine from each group was sacrificed at that time and the liver, intestine, lung, heart, loin muscle, adipose tissue and ham muscle were removed.
compound,measurement,setting,value
"CC(C)=CCC/C(C)=C/CC/C(C)=C/CCC1CCc2cc(O)ccc2O1 (stereo not drawn) [P25, 3,4-dihydro-2-(4,8,12-trimethyltrideca-3'(E),7'(E),11'-trienyl)-2H-1-benzopyran-6-ol]",reduction of enzymatic activity of HMG-CoA reductase,[1]; 50 ppm in diet,about 28%
same,"HMG-CoA Reductase, percentage of control",[1]; control diet + 50 ppm,71.33%
same,"Cholesterol 7α-Hydroxylase, percentage of control",[2],111.45%
same,Cholesterol 7α-hydroxylase,[2],11.39 nmol/min/mg
same,Platelet Factor 4,[3],7.27 ng/mL
same,"Platelet Factor 4, percentage of control",[3],55.54%
same,Thromboxane B2,[3],16.42 pg/mL
same,"Thromboxane B2, percentage of control",[3],63.54%
same,Fatty Acid Synthase,[4]; 10.0 μg/mL,16.2 nmol/min/mg
same,"Fatty Acid Synthase, percentage of 0.0 μg/mL",[4]; 10.0 μg/mL,94.2%
same,Fatty Acid Synthase,[4]; 20.0 μg/mL,14.3 nmol/min/mg
same,"Fatty Acid Synthase, percentage of 0.0 μg/mL",[4]; 20.0 μg/mL,83.1%
same,Fatty Acid Synthase,[4]; 40.0 μg/mL,12.7 nmol/min/mg
same,"Fatty Acid Synthase, percentage of 0.0 μg/mL",[4]; 40.0 μg/mL,73.8%
same,Fatty Acid Synthase,[4]; 80.0 μg/mL,12.1 nmol/min/mg
same,"Fatty Acid Synthase, percentage of 0.0 μg/mL",[4]; 80.0 μg/mL,70.3%
same,Cholesterol 7α-hydroxylase,[5]; 10.0 μg/mL,2.33 pmol/min/mg
same,"Cholesterol 7α-hydroxylase, percentage of 0.0 μg/mL",[5]; 10.0 μg/mL,100.9%
same,Cholesterol 7α-hydroxylase,[5]; 20.0 μg/mL,2.37 pmol/min/mg
same,"Cholesterol 7α-hydroxylase, percentage of 0.0 μg/mL",[5]; 20.0 μg/mL,102.61%
same,Cholesterol 7α-hydroxylase,[5]; 40.0 μg/mL,2.44 pmol/min/mg
same,"Cholesterol 7α-hydroxylase, percentage of 0.0 μg/mL",[5]; 40.0 μg/mL,105.6%
same,Cholesterol 7α-hydroxylase,[5]; 80.0 μg/mL,2.37 pmol/min/mg
same,"Cholesterol 7α-hydroxylase, percentage of 0.0 μg/mL",[5]; 80.0 μg/mL,102.6%
same,reduction of total cholesterol concentration in the ham muscle,[6]; 50 ppm in diet,30%
same,reduction of total cholesterol concentration in the liver,[6]; 50 ppm in diet,37%
same,"TOTAL CHOLESTEROL CONCENTRATION, Adipose Tissue","[6]; control diet + 50 ppm, 42 days",89.54 mg/100 gm
same,"TOTAL CHOLESTEROL CONCENTRATION, Ham Muscle","[6]; control diet + 50 ppm, 42 days",69.17 mg/100 gm
same,"TOTAL CHOLESTEROL CONCENTRATION, Heart","[6]; control diet + 50 ppm, 42 days",51.53 mg/100 gm
same,"TOTAL CHOLESTEROL CONCENTRATION, Intestine","[6]; control diet + 50 ppm, 42 days",176.67 mg/100 gm
same,"TOTAL CHOLESTEROL CONCENTRATION, Liver","[6]; control diet + 50 ppm, 42 days",125.21 mg/100 gm
same,"TOTAL CHOLESTEROL CONCENTRATION, Loin Muscle","[6]; control diet + 50 ppm, 42 days",99.04 mg/100 gm
same,"TOTAL CHOLESTEROL CONCENTRATION, Lung","[6]; control diet + 50 ppm, 42 days",68.5 mg/100 gm
same,"TOTAL CHOLESTEROL, Adipose Tissue, percentage of control","[6]; control diet + 50 ppm, 42 days",81.85%
same,"TOTAL CHOLESTEROL, Ham Muscle, percentage of control","[6]; control diet + 50 ppm, 42 days",69.17%
same,"TOTAL CHOLESTEROL, Heart, percentage of control","[6]; control diet + 50 ppm, 42 days",82.79%
same,"TOTAL CHOLESTEROL, Intestine, percentage of control","[6]; control diet + 50 ppm, 42 days",81.98%
same,"TOTAL CHOLESTEROL, Liver, percentage of control","[6]; control diet + 50 ppm, 42 days",62.11%
same,"TOTAL CHOLESTEROL, Loin Muscle, percentage of control","[6]; control diet + 50 ppm, 42 days",81.85%
same,"TOTAL CHOLESTEROL, Lung, percentage of control","[6]; control diet + 50 ppm, 42 days",66.98%
same,"TOTAL GLUCOSE CONCENTRATION, Adipose Tissue","[6]; control diet + 50 ppm, 42 days",14.96 mg/100 gm
same,"TOTAL GLUCOSE CONCENTRATION, Ham Muscle","[6]; control diet + 50 ppm, 42 days",53.05 mg/100 gm
same,"TOTAL GLUCOSE CONCENTRATION, Heart","[6]; control diet + 50 ppm, 42 days",45.49 mg/100 gm
same,"TOTAL GLUCOSE CONCENTRATION, Intestine","[6]; control diet + 50 ppm, 42 days",56.06 mg/100 gm
same,"TOTAL GLUCOSE CONCENTRATION, Liver","[6]; control diet + 50 ppm, 42 days",362.99 mg/100 gm
same,"TOTAL GLUCOSE CONCENTRATION, Loin Muscle","[6]; control diet + 50 ppm, 42 days",53.01 mg/100 gm
same,"TOTAL GLUCOSE CONCENTRATION, Lung","[6]; control diet + 50 ppm, 42 days",60.96 mg/100 gm
same,"TOTAL GLUCOSE, Adipose Tissue, percentage of control","[6]; control diet + 50 ppm, 42 days",81.57%
same,"TOTAL GLUCOSE, Ham Muscle, percentage of control","[6]; control diet + 50 ppm, 42 days",98.57%
same,"TOTAL GLUCOSE, Heart, percentage of control","[6]; control diet + 50 ppm, 42 days",92.37%
same,"TOTAL GLUCOSE, Intestine, percentage of control","[6]; control diet + 50 ppm, 42 days",77.89%
same,"TOTAL GLUCOSE, Liver, percentage of control","[6]; control diet + 50 ppm, 42 days",89.58%
same,"TOTAL GLUCOSE, Loin Muscle, percentage of control","[6]; control diet + 50 ppm, 42 days",74.41%
same,"TOTAL GLUCOSE, Lung, percentage of control","[6]; control diet + 50 ppm, 42 days",91.08%
same,"TOTAL TRIGLYCERIDES CONCENTRATION, Adipose Tissue","[6]; control diet + 50 ppm, 42 days",259.62 mg/100 gm
same,"TOTAL TRIGLYCERIDES CONCENTRATION, Ham Muscle","[6]; control diet + 50 ppm, 42 days",182.98 mg/100 gm
same,"TOTAL TRIGLYCERIDES CONCENTRATION, Heart","[6]; control diet + 50 ppm, 42 days",140.51 mg/100 gm
same,"TOTAL TRIGLYCERIDES CONCENTRATION, Intestine","[6]; control diet + 50 ppm, 42 days",345.37 mg/100 gm
same,"TOTAL TRIGLYCERIDES CONCENTRATION, Liver","[6]; control diet + 50 ppm, 42 days",384.00 mg/100 gm
same,"TOTAL TRIGLYCERIDES CONCENTRATION, Loin Muscle","[6]; control diet + 50 ppm, 42 days",189.18 mg/100 gm
same,"TOTAL TRIGLYCERIDES CONCENTRATION, Lung","[6]; control diet + 50 ppm, 42 days",163.42 mg/100 gm
same,"TOTAL TRIGLYCERIDES, Adipose Tissue, percentage of control activity","[6]; control diet + 50 ppm, 42 days",59.59%
same,"TOTAL TRIGLYCERIDES, Ham Muscle, percentage of control activity","[6]; control diet + 50 ppm, 42 days",98.44%
same,"TOTAL TRIGLYCERIDES, Heart, percentage of control activity","[6]; control diet + 50 ppm, 42 days",97.43%
same,"TOTAL TRIGLYCERIDES, Intestine, percentage of control activity","[6]; control diet + 50 ppm, 42 days",96.57%
same,"TOTAL TRIGLYCERIDES, Liver, percentage of control activity","[6]; control diet + 50 ppm, 42 days",89.44%
same,"TOTAL TRIGLYCERIDES, Loin Muscle, percentage of control activity","[6]; control diet + 50 ppm, 42 days",86.12%
same,"TOTAL TRIGLYCERIDES, Lung, percentage of control activity","[6]; control diet + 50 ppm, 42 days",95.03%
same,increase of feed conversion efficiency,[7],10%
